The subject of assay [1] is NCI-H716 cells. As to the kind of experiment: cells. Type of assay: cell-based, Human. The following applies: for IC50/EC50, hNCI-H716 GLP1 Secretion (assay number 12): concentration response.
In assay [2] the test system is STC-1 cell line. Type of assay: cell-based, mouse. The following applies: for IC50/EC50, mSTC-1 GLP1 Secretion (assay number 13): concentration response.

Like-named read-outs stand apart in the source and are kept apart here.

As for `Cc1cc(N)c2cc(NC(=O)Nc3ccc4nc(C)cc(N)c4c3)ccc2n1` [NCGC00013130-04], the “hNCI-H716 GLP1 Secretion IC50/EC50” value in assay [1] (assay number 12) is listed as 34.2472 µM. Further, the “mSTC-1 GLP1 Secretion IC50/EC50” value in assay [2] (assay number 13) is listed as over 40 µM.

`CC(=O)OC(C)C[N+](C)(C)C.[Cl-]` (stereo not drawn) [NCGC00015045-09]: the “hNCI-H716 GLP1 Secretion IC50/EC50” value in assay [1] (assay number 12) is over 40 µM. For the same molecule, the “mSTC-1 GLP1 Secretion IC50/EC50” value in assay [2] (assay number 13) is given as over 40 µM.

On to `CC(C)(Oc1ccc(C2CC2(Cl)Cl)cc1)C(=O)O` (stereo not drawn) [NCGC00015202-08], for which the “hNCI-H716 GLP1 Secretion IC50/EC50” value in assay [1] (assay number 12) is over 40 µM. Further, the “mSTC-1 GLP1 Secretion IC50/EC50” value in assay [2] (assay number 13) is reported as over 40 µM.

For the molecule `C=Cc1c(C)c2cc3[nH]c(cc4nc(cc5nc(cc1[nH]2)C(C)=C5CCC(=O)O)C(CCC(=O)O)=C4C)c(C)c3C=C` [NCGC00015844-10], the “hNCI-H716 GLP1 Secretion IC50/EC50” value in assay [1] (assay number 12) stood at 19.5523 µM. Besides, the “mSTC-1 GLP1 Secretion IC50/EC50” value in assay [2] (assay number 13) was over 40 µM.

For the molecule `CN(C(=O)CN(CCO)CC(=O)N(C)C(C)(C)Cc1ccccc1)C(C)(C)Cc1ccccc1` [NCGC00016382-07], the “IC50/EC50, hNCI-H716 GLP1 Secretion (assay number 12)” value (“IC50/EC50, hNCI-H716 GLP1 Secretion” for short) in assay [1] was determined as 25.0515 µM. In assay [2], the “IC50/EC50, mSTC-1 GLP1 Secretion (assay number 13)” value (“IC50/EC50, mSTC-1 GLP1 Secretion” below) is given as over 40 µM.

For the molecule `Cc1c(NC(C)C)c(=O)n(-c2ccccc2)n1C` [NCGC00016735-06], the “hNCI-H716 GLP1 Secretion IC50/EC50” value in assay [1] (assay number 12) is recorded as over 40 µM. Besides, the “mSTC-1 GLP1 Secretion IC50/EC50” value in assay [2] (assay number 13) is over 40 µM.

On to `CN[C@@H]1[C@H](O)[C@H](NC)[C@H]2O[C@@]3(O)C(=O)C[C@@H](C)O[C@H]3O[C@@H]2[C@H]1O.Cl.Cl` [NCGC00017354-07], for which the “hNCI-H716 GLP1 Secretion IC50/EC50” value in assay [1] (assay number 12) is on record as over 40 µM. Also, the “mSTC-1 GLP1 Secretion IC50/EC50” value in assay [2] (assay number 13) was over 40 µM.

Regarding `C/C=C(/C(=C/C)c1ccc(O)cc1)c1ccc(O)cc1` [NCGC00018153-10], in assay [1], the “IC50/EC50, hNCI-H716 GLP1 Secretion” value is on record as over 40 µM. Also, the “IC50/EC50, mSTC-1 GLP1 Secretion” value in assay [2] was over 40 µM.

Consider `CCCCCCCCN[C@@H](C)[C@H](O)c1ccc(SC(C)C)cc1` [NCGC00018301-05], for which the “IC50/EC50, hNCI-H716 GLP1 Secretion” value in assay [1] was determined as 13.0298 µM. Besides, the “IC50/EC50, mSTC-1 GLP1 Secretion” value in assay [2] is on record as over 40 µM.

On to `c1ccc2ccccc2c1` [NCGC00090793-05], for which the “hNCI-H716 GLP1 Secretion IC50/EC50” value in assay [1] (assay number 12) is listed as 20.7685 µM. The “mSTC-1 GLP1 Secretion IC50/EC50” value in assay [2] (assay number 13) is on record as over 40 µM.

For the molecule `CC(=O)NO` [NCGC00094576-05], the “hNCI-H716 GLP1 Secretion IC50/EC50” value in assay [1] (assay number 12) is over 40 µM. In addition, in assay [2] (assay number 13), the “mSTC-1 GLP1 Secretion IC50/EC50” value was over 40 µM.

Take `CCCCC(CC)CN1CN(CC(CC)CCCC)CC(C)(N)C1` (stereo not drawn) [NCGC00094819-07]: in assay [1] (assay number 12), the “hNCI-H716 GLP1 Secretion IC50/EC50” value turned out to be 36.4422 µM. Also, in assay [2] (assay number 13), the “mSTC-1 GLP1 Secretion IC50/EC50” value was determined as 26.5729 µM.

On to `CCCCCCCCCCCCCCCCCCOCC(O)CO` (stereo not drawn) [NCGC00095748-04], for which, in assay [1] (assay number 12), the “hNCI-H716 GLP1 Secretion IC50/EC50” value is over 40 µM. Further, in assay [2] (assay number 13), the “mSTC-1 GLP1 Secretion IC50/EC50” value was over 40 µM.

Regarding `CC1=C(C(=O)O)N2C(=O)[C@@H](NC(=O)[C@H](N)c3ccccc3)[C@H]2SC1` [NCGC00159522-05], the “hNCI-H716 GLP1 Secretion IC50/EC50” value in assay [1] (assay number 12) is given as over 40 µM. Also, in assay [2] (assay number 13), the “mSTC-1 GLP1 Secretion IC50/EC50” value is over 40 µM.

`O=c1oc2ccccc2c(O)c1C(CC(O)c1ccc(-c2ccc(Br)cc2)cc1)c1ccccc1` (stereo not drawn) [NCGC00163939-02]: the “hNCI-H716 GLP1 Secretion IC50/EC50” value in assay [1] is given as over 40 µM. For the same molecule, the “mSTC-1 GLP1 Secretion IC50/EC50” value in assay [2] is 9.1609 µM.

These data come from PMC4503722, “Novel Phenotypic Outcomes Identified for a Public Collection of Approved Drugs from a Publicly Accessible Panel of Assays” (PLoS ONE, 2015).
